Test results as given in ChEMBL document CHEMBL6087487, “Discovery of a 2'-α-Fluoro-2'-β-C-(fluoromethyl) Purine Nucleotide Prodrug as a Potential Oral Anti-SARS-CoV-2 Agent” (J Med Chem, 2025).

Legend:
SARS-CoV-2 [1] = test: (§1) Antiviral activity against SARS-CoV-2 Omicron BA.5 infected in HPAEpiC cells assessed as inhibition of viral replication pretreated with compound and subsequent introduction of viral infection for 1 hr followed by inoculum removal and compound washout and further treatment with compound for 48 hrs by RT-qPCR analysis; format: functional, organism-based; conditions: Severe acute respiratory syndrome coronavirus 2, Omicron BA.5, HPAEpiC
SARS-CoV-2 [2] = test: as §1, with “20SF107” for “Omicron BA.5”; format: functional, organism-based; conditions: for EC50: Severe acute respiratory syndrome coronavirus 2, 20SF107, HPAEpiC

CNc1nc(N)nc2c1ncn2[C@@H]1O[C@H](CO[P@@](=O)(N[C@@H](C)C(=O)OC(C)C)Oc2ccccc2)[C@@H](O)[C@]1(F)CF.O=S(=O)(O)O
EC50 (SARS-CoV-2 [1]): 960 nM
EC50 (SARS-CoV-2 [2]): 560 nM
inhibition (SARS-CoV-2 [2]; Severe acute respiratory syndrome coronavirus 2, time 49.0 hrs): Dose-dependent-effect

CCC(CC)COC(=O)[C@H](C)N[P@](=O)(OC[C@H]1O[C@@](C#N)(c2ccc3c(N)ncnn23)[C@H](O)[C@@H]1O)Oc1ccccc1 [REMDESIVIR]
EC50 (SARS-CoV-2 [2]): 910 nM
